Common to all, as to assay: Kinase profiling in a biochemical assay panel (mobility shift assays and ELISA), %-inhibition at 1 μM; selectivity entropy
For assay [1], the target named is panel of more than 300 wild-type and mutant kinases (313 kinase panel) (Homo sapiens, UniProt P21802).
Assay [2] deals with panel of more than 300 wild-type and mutant kinases (313 kinase panel) (Homo sapiens, UniProt Q15303).
The target of assay [3] is panel of more than 300 wild-type and mutant kinases (313 kinase panel) (Homo sapiens, UniProt P54764).
Sequence of panel of more than 300 wild-type and mutant kinases (313 kinase panel) (Homo sapiens, UniProt P54764) (P54764 20-986, change not shown): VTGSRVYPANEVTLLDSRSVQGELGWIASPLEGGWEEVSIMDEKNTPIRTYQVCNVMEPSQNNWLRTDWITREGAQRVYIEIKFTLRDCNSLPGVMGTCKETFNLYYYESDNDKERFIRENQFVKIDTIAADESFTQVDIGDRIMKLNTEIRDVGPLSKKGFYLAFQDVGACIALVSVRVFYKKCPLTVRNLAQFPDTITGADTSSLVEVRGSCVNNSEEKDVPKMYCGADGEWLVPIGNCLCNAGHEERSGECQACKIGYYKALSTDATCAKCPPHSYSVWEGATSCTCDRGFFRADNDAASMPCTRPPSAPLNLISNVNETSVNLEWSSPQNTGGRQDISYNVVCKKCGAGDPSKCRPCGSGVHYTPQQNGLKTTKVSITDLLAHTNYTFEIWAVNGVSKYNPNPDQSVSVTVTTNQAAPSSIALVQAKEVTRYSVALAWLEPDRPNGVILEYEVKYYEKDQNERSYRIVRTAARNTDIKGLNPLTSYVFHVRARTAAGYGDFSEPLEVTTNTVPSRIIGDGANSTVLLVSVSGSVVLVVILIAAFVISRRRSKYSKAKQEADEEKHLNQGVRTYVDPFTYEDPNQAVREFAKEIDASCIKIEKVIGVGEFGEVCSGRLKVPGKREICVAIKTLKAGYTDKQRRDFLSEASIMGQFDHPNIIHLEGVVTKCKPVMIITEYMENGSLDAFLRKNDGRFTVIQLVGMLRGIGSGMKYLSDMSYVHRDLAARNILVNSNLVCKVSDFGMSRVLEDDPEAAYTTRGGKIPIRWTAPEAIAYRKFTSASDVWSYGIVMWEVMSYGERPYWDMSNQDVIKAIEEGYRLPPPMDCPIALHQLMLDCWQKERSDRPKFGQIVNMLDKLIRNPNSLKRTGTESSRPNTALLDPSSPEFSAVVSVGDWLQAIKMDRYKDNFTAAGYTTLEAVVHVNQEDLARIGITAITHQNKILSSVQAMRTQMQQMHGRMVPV
Assay [4] deals with panel of more than 300 wild-type and mutant kinases (313 kinase panel) (Homo sapiens, UniProt P49759).
Sequence of panel of more than 300 wild-type and mutant kinases (313 kinase panel) (Homo sapiens, UniProt P49759) (P49759 whole entry, change not shown): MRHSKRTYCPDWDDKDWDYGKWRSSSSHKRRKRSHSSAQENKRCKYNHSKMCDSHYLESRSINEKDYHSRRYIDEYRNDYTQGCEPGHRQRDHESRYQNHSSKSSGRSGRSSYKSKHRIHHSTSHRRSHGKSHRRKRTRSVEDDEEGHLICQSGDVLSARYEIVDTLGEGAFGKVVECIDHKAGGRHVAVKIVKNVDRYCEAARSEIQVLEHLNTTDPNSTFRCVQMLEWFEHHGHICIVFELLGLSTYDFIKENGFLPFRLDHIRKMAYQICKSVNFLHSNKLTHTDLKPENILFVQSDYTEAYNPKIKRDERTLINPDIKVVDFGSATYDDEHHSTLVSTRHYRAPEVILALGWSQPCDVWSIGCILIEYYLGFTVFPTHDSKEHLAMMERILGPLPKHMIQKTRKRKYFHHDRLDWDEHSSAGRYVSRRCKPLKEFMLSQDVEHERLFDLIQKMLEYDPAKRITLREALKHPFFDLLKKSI
For assay [5], the target named is panel of more than 300 wild-type and mutant kinases (313 kinase panel) (Homo sapiens, UniProt P50613).
Sequence of panel of more than 300 wild-type and mutant kinases (313 kinase panel) (Homo sapiens, UniProt P50613) (P50613 whole entry, change not shown): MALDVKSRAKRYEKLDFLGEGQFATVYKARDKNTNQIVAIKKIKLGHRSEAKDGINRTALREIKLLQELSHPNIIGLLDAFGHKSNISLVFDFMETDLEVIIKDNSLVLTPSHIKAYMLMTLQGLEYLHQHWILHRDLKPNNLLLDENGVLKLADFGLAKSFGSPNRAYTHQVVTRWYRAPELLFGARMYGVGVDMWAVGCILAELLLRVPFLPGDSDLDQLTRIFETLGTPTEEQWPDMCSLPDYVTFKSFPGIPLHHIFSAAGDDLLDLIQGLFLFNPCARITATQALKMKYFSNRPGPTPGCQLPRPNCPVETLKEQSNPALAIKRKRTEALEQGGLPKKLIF
Assay [6] has as its target T1, panel of more than 300 wild-type and mutant kinases (313 kinase panel) (Homo sapiens, UniProt Q15831).
T1 sequence (Q15831 1-433): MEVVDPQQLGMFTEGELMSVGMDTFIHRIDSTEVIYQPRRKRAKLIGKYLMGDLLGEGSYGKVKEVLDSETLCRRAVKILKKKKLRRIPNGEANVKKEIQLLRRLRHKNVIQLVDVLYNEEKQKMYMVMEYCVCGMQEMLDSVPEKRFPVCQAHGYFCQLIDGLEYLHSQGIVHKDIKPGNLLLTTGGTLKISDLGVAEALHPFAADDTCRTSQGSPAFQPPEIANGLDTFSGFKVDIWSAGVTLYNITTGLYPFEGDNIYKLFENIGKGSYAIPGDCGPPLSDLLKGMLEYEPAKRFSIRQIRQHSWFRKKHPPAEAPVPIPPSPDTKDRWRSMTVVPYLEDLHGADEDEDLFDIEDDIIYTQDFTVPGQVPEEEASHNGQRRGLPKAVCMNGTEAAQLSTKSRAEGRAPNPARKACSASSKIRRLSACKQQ

The target in assay [7] is T2, panel of more than 300 wild-type and mutant kinases (313 kinase panel) (Homo sapiens, UniProt P00540).
T2 sequence (P00540 1-346): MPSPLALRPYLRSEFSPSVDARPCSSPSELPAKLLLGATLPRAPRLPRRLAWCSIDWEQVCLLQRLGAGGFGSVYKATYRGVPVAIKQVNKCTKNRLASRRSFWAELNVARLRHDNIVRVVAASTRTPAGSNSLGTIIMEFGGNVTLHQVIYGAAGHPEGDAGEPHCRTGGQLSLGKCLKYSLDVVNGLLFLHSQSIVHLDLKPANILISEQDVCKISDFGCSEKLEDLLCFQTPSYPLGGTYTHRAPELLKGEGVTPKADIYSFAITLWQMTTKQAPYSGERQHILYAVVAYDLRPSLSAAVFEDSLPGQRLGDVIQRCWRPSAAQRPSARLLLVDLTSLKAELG

Assay [8] addresses T3, panel of more than 300 wild-type and mutant kinases (313 kinase panel) (Homo sapiens, UniProt Q9UQB9).
T3 sequence (Q9UQB9 1-309): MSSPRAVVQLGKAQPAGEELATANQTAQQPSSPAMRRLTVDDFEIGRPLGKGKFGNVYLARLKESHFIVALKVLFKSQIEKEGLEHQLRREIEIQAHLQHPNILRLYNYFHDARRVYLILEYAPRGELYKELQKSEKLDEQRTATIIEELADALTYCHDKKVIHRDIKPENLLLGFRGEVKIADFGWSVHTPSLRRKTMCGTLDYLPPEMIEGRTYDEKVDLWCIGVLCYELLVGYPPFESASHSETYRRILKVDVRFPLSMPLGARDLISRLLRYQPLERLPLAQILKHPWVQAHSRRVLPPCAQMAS

Assay [9] concerns the target T4, panel of more than 300 wild-type and mutant kinases (313 kinase panel) (Homo sapiens, UniProt O15146).
T4 sequence (O15146 24-869): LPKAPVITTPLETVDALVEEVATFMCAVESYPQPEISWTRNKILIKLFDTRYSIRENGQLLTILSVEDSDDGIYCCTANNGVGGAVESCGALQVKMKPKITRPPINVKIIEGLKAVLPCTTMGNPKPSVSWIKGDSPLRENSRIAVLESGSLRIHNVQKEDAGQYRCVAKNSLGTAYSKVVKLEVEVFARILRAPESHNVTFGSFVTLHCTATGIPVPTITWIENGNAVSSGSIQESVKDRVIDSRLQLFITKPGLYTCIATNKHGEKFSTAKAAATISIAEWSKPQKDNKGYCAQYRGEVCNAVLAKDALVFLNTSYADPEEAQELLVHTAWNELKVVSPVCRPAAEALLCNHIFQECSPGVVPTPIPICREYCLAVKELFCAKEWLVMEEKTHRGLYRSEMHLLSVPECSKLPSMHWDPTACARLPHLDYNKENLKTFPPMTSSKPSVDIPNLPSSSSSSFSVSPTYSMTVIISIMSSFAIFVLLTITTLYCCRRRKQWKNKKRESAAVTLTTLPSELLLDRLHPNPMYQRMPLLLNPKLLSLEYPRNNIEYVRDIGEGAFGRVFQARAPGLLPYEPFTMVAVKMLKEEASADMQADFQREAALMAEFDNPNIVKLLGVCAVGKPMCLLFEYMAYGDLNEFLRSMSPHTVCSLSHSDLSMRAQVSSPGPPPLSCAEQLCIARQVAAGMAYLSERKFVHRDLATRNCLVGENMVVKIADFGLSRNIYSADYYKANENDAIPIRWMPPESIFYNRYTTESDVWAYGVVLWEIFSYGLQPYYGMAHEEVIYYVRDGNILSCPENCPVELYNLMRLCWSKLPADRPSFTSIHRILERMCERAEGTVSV

Where [10] appears, read: kinase CDK7/CycH/MAT1, 1 μM compound.

Sequence of panel of more than 300 wild-type and mutant kinases (313 kinase panel) (Homo sapiens, UniProt Q15303) (Q15303 26-1308, change not shown): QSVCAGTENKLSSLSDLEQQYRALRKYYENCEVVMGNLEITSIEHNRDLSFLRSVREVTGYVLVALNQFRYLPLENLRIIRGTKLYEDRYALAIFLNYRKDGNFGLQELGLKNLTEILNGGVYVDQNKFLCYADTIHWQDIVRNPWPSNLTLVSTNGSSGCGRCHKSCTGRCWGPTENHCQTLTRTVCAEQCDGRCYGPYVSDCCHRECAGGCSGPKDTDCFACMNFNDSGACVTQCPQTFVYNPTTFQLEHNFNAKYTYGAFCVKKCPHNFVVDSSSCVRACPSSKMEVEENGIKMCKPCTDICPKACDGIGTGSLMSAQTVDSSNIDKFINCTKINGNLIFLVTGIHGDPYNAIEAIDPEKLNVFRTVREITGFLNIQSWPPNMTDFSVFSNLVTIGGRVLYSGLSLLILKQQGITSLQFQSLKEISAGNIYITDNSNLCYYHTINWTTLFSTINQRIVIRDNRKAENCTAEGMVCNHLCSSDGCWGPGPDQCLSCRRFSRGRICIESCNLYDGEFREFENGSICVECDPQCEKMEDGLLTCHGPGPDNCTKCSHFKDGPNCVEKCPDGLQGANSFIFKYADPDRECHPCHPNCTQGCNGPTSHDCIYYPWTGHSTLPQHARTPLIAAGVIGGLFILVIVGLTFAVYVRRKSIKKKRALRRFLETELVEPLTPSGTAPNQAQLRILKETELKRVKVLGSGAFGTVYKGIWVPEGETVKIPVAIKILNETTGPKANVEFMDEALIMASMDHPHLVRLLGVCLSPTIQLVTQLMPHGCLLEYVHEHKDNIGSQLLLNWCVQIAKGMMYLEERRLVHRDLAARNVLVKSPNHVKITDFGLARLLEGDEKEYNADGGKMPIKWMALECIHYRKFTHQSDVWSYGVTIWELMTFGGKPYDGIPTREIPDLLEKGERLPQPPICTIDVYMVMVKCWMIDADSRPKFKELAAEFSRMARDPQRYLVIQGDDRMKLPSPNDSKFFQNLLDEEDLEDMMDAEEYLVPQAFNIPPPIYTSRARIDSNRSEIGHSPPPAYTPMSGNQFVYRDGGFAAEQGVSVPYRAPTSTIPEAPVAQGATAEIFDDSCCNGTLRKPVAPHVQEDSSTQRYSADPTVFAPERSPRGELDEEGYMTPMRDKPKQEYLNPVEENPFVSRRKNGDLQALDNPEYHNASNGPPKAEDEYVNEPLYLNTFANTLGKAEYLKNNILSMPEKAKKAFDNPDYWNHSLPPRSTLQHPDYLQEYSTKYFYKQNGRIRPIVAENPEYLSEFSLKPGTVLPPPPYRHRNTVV

As to `C#Cc1cccc(Nc2ncnc3cc(OCCOC)c(OCCOC)cc23)c1` [erlotinib], the “%-inhibition of FGFR2” value in assay [1] (1 µM) is 58%. Besides, the “%-inhibition of HER4” value in assay [2] (1 µM) worked out at 97%. For the same compound, the “%-inhibition of EPHA4” value in assay [3] (1 µM) is 32%. Also, the “%-inhibition, CLK1” value in assay [4] (1 µM) stood at 21%. Further, in assay [5] (1 µM), the “%-inhibition, CDK7/CycH/MAT1” value came to 1.22%. Moreover, in assay [6] (1 µM), the “%-inhibition of LKB1” value is 2%. Besides, in assay [7] (1 µM), the “%-inhibition of MOS” value came out at 3.64%. In [8] (1 µM), the “%-inhibition, AurC” value came to 24%. In [9] (1 µM), the “%-inhibition of MUSK” value worked out at 12%.

Consider `CO[C@H]1C[C@@H]2CC[C@@H](C)[C@@](O)(O2)C(=O)C(=O)N2CCCC[C@H]2C(=O)O[C@H]([C@H](C)C[C@@H]2CC[C@@H](OCCO)[C@H](OC)C2)CC(=O)[C@H](C)/C=C(\C)[C@@H](O)[C@@H](OC)C(=O)[C@H](C)C[C@H](C)/C=C/C=C/C=C/1C` [everolimus], for which the “%-inhibition of FGFR2” value in [1] (kinase FGFR2, compound at 1 μM) is listed as -10%. For the same compound, the “%-inhibition of HER4” value in [2] (kinase HER4, compound at 1 μM) is recorded as -7%. The “%-inhibition of EPHA4” value in assay [3] (kinase EPHA4, compound at 1 μM) is -2.61%. Further, in assay [4] (kinase CLK1, 1 μM compound), the “%-inhibition, CLK1” value is recorded as -7.39%. The “%-inhibition, CDK7/CycH/MAT1” value in assay [5] (setting [10]) is -6%. For the same compound, in assay [6] (kinase LKB1, compound at 1 μM), the “%-inhibition of LKB1” value is -9%. In addition, in assay [7] (kinase MOS, 1 μM), the “%-inhibition of MOS” value is given as 3.3%. In addition, in assay [8] (kinase AurC, 1 μM compound), the “%-inhibition, AurC” value was -6.41%. In addition, the “%-inhibition of MUSK” value in assay [9] (kinase MUSK, 1 μM) is recorded as -7%.

Turning to `O=S(=O)(c1cccc2cnccc12)N1CCCNCC1` [fasudil], in assay [1] (kinase FGFR2, compound at 1 μM), the “%-inhibition of FGFR2” value is given as -1.76%. The “%-inhibition of HER4” value in assay [2] (kinase HER4, compound at 1 μM) is on record as -0.227%. In addition, the “%-inhibition of EPHA4” value in [3] (kinase EPHA4, compound at 1 μM) is given as -6%. Besides, the “%-inhibition, CLK1” value in assay [4] (kinase CLK1, 1 μM compound) came out at 32%. Further, in [5] (setting [10]), the “%-inhibition, CDK7/CycH/MAT1” value is 7.49%. Besides, in [6] (kinase LKB1, compound at 1 μM), the “%-inhibition of LKB1” value was 6%. In addition, the “%-inhibition of MOS” value in assay [7] (kinase MOS, 1 μM) is recorded as -24%. In addition, the “%-inhibition, AurC” value in assay [8] (kinase AurC, 1 μM compound) is reported as -0.164%. Moreover, the “%-inhibition of MUSK” value in assay [9] (kinase MUSK, 1 μM) was 2%.

In the case of `CS(=O)(=O)CCNCc1ccc(-c2ccc3ncnc(Nc4ccc(OCc5cccc(F)c5)c(Cl)c4)c3c2)o1` [lapatinib], the “%-inhibition of FGFR2” value in assay [1] (1 µM) is given as 0.434%. In addition, the “%-inhibition of HER4” value in [2] (1 µM) stood at 102%. Moreover, the “%-inhibition of EPHA4” value in assay [3] (kinase EPHA4, compound at 1 μM) is -0.823%. The “%-inhibition, CLK1” value in [4] (kinase CLK1, 1 μM compound) is reported as 14%. Also, in [5] (setting [10]), the “%-inhibition, CDK7/CycH/MAT1” value worked out at 2%. In [6] (kinase LKB1, compound at 1 μM), the “%-inhibition of LKB1” value was 4%. In [7] (kinase MOS, 1 μM), the “%-inhibition of MOS” value stood at 4.31%. Also, the “%-inhibition, AurC” value in [8] (1 µM) turned out to be 3.4%. In assay [9] (kinase MUSK, 1 μM), the “%-inhibition of MUSK” value is recorded as 4.38%.

Take `Cc1ccc(Nc2nccc(N(C)c3ccc4c(C)n(C)nc4c3)n2)cc1S(N)(=O)=O` [pazopanib]: in [1] (kinase FGFR2, compound at 1 μM), the “%-inhibition of FGFR2” value is given as 97%. Further, the “%-inhibition of HER4” value in assay [2] (kinase HER4, compound at 1 μM) was found to be 16%. In [3] (kinase EPHA4, compound at 1 μM), the “%-inhibition of EPHA4” value is given as 22%. The “%-inhibition, CLK1” value in assay [4] (kinase CLK1, 1 μM compound) was found to be 7.57%. The “%-inhibition, CDK7/CycH/MAT1” value in assay [5] (setting [10]) was found to be 9%. In [6] (kinase LKB1, compound at 1 μM), the “%-inhibition of LKB1” value amounted to 28%. In addition, the “%-inhibition of MOS” value in assay [7] (kinase MOS, 1 μM) is recorded as -12%. Also, in [8] (kinase AurC, 1 μM compound), the “%-inhibition, AurC” value stood at 58%. Moreover, the “%-inhibition of MUSK” value in [9] (kinase MUSK, 1 μM) is reported as 9%.

Regarding `CNC(=O)c1cc(Oc2ccc(NC(=O)Nc3ccc(Cl)c(C(F)(F)F)c3)c(F)c2)ccn1` [regorafenib], the “%-inhibition of FGFR2” value in assay [1] (kinase FGFR2, compound at 1 μM) turned out to be 103%. Moreover, the “%-inhibition of HER4” value in assay [2] (kinase HER4, compound at 1 μM) was found to be 3.81%. Also, in assay [3] (kinase EPHA4, compound at 1 μM), the “%-inhibition of EPHA4” value is 92%. Further, the “%-inhibition, CLK1” value in assay [4] (kinase CLK1, 1 μM compound) came out at 38%. In addition, the “%-inhibition, CDK7/CycH/MAT1” value in assay [5] (setting [10]) is -3%. Further, the “%-inhibition of LKB1” value in [6] (kinase LKB1, compound at 1 μM) was -5%. Moreover, the “%-inhibition of MOS” value in assay [7] (kinase MOS, 1 μM) was determined as 0.399%. The “%-inhibition, AurC” value in assay [8] (kinase AurC, 1 μM compound) was found to be 22%. Further, the “%-inhibition of MUSK” value in [9] (kinase MUSK, 1 μM) is on record as 80%.

For `CC(=O)Nc1cccc(-n2c(=O)n(C3CC3)c(=O)c3c(Nc4ccc(I)cc4F)n(C)c(=O)c(C)c32)c1` [trametinib], in assay [1] (kinase FGFR2, compound at 1 μM), the “%-inhibition of FGFR2” value is given as -2.64%. Besides, the “%-inhibition of HER4” value in assay [2] (kinase HER4, compound at 1 μM) worked out at 2.34%. Further, the “%-inhibition of EPHA4” value in assay [3] (kinase EPHA4, compound at 1 μM) was -5.3%. Also, the “%-inhibition, CLK1” value in assay [4] (kinase CLK1, 1 μM compound) was -0.618%. In [5] (setting [10]), the “%-inhibition, CDK7/CycH/MAT1” value is given as -6%. The “%-inhibition of LKB1” value in assay [6] (kinase LKB1, compound at 1 μM) is 2.38%. In addition, the “%-inhibition of MOS” value in [7] (kinase MOS, 1 μM) worked out at 42%. The “%-inhibition, AurC” value in assay [8] (kinase AurC, 1 μM compound) came out at 1%. In assay [9] (kinase MUSK, 1 μM), the “%-inhibition of MUSK” value was -0.929%.

With `CCCS(=O)(=O)Nc1ccc(F)c(C(=O)c2c[nH]c3ncc(-c4ccc(Cl)cc4)cc23)c1F` [vemurafenib], the “%-inhibition of FGFR2” value in [1] (kinase FGFR2, compound at 1 μM) came to 10%. The “%-inhibition of HER4” value in [2] (kinase HER4, compound at 1 μM) was 11%. For the same compound, the “%-inhibition of EPHA4” value in [3] (kinase EPHA4, compound at 1 μM) is -2%. Further, the “%-inhibition, CLK1” value in [4] (kinase CLK1, 1 μM compound) is recorded as 5%. Moreover, the “%-inhibition, CDK7/CycH/MAT1” value in [5] (setting [10]) is listed as 0.137%. In addition, the “%-inhibition of LKB1” value in assay [6] (kinase LKB1, compound at 1 μM) amounted to 1.13%. Moreover, the “%-inhibition of MOS” value in assay [7] (kinase MOS, 1 μM) came out at 10%. Besides, the “%-inhibition, AurC” value in [8] (kinase AurC, 1 μM compound) is reported as 13%. The “%-inhibition of MUSK” value in [9] (kinase MUSK, 1 μM) was -0.285%.

Source of the values: paper PMC3961306, “Comparison of the Cancer Gene Targeting and Biochemical Selectivities of All Targeted Kinase Inhibitors Approved for Clinical Use” (PLoS ONE, 2014).
